Data as given in patent US20240016875A1, “SHAN-ZHA FOR THE TREATMENT OF DEPRESSION AND ANXIETY DISORDERS” (THE OPEN UNIVERSITY, priority 2020, published 2024).
Entries after “also recorded” stand apart in the source; their conditions may differ.

Columns and labels:
21 days old pups = experiment: EPM in 21 days old pups treated via lactation; assay type: in vivo, mice
Procedure: The EPM task was performed as previously described. Shortly, each mouse was placed in the center of the maze and video recorded for 5 min. Anxiety-like behavior was expressed as the time the mouse spent in the open, unprotected arms of the maze.
Female (n=40) and male (n=5) ICR outbred mice (100 days old; Envigo RMS, Jerusalem, Israel) were housed at 22±1° C. under 12 h light/dark cycles in the vivarium of the Open University lab in Hadassah medical center, Jerusalem. Mice had ad libitum access to rodent chow and water. Mice were housed in standard cages with a bed of woodchips and a piece of cotton wool for enrichment. All experiments were performed during the dark phase of the cycle. Male mice were used to father pups and were housed apart (5 per cage) from females until mating. […] Once a vaginal plug was identified, the females were transferred to a separate cage until parturition. Overall, 455 pups were delivered of which 317 (male: n=165; female: n=152) were designated for this study. Unassessed pups were maintained with littermates to avoid additional stress and ensure similar conditions. […]
Following mating, dams were separated to individual cages and were observed periodically to ensure onset of pregnancy. […] Shortly after, anxiety-like behavior was assessed on the EPM and dams were assigned to treatment group (escitalopram/shan-zha/vehicle). […]

stressed mice [1] = experiment: Elevated plus maze (EPM), UCMS-stressed mice, Examples 1-3; assay type: in vivo; details: UCMS-stressed male ICR mice; herbs and NHT 30 mg/kg, escitalopram 15 mg/kg i.p., 3 weeks; vs vehicle
Procedure: ICR outbred 28-30 days old male mice (Envigo, Israel) were maintained in the vivarium of the Open University lab in Hadassah Ein Karem medical cement, Jerusalem. Mice were group housed (5 mice per cage) and each cage contained mice from all treatment groups. Mice were given ad libitum access to food and water except during stressor application (with the exclusion of the light/dark cycle reversal). Mice kept on a reversed 12 h light/dark cycle (lights on 7:00 pm-7:00 am) while experimental procedures were performed during the dark phase under red light. All experiments were approved by the Open University of Israel committee for animal care and use. Methods were carried out in accordance with the NIH guidelines.
Crataegus pinnatifida, Triticum aestivum, Lilium brownii and Fructus zizyphi jujuba were purchased as freeze-dried granules (KPC Products, Inc., Irvine, CA, USA). Each herb was dissolved in saline with 1% dimethylsulfoxide (DMSO) to a final concentration of 0.47 mg/ml and injected i.p. individually (30 mg/kg) or with the other components to form the formula (NHT, 30 mg/kg). […]
The EPM task was performed as previously described [6]. Shortly, each mouse was placed in the center of the maze and video recorded for 5 min. Anxiety-like behavior was expressed as the time the mouse spent in the open, unprotected arms of the maze. […]

stressed mice [2] = experiment: Tail suspension test (TST), UCMS-stressed mice, Examples 1-3; assay type: in vivo; details: UCMS-stressed male ICR mice; herbs and NHT 30 mg/kg, escitalopram 15 mg/kg i.p., 3 weeks; vs vehicle
BDNF = experiment: Hippocampal BDNF levels (ELISA), Example 7; assay type: in vivo; details: stressed mice; 30 mg/kg (escitalopram 15 mg/kg) i.p., 3 weeks; vs vehicle
Procedure: Assessment of brain BDNF levels. Tissues are homogenized in cold extraction buffer (Tris-buffered saline, pH 8.0, with 1% NP-40, 10% glycerol, 5 mM sodium metavanadate, 10 mM PMSF, 100 mg/ml aprotinin and 10 mg/ml leupeptin). Homogenates are acidified with 0.1 M HCl (pH 3.0), incubated at room temperature (22-24° C.) for 15 min, and neutralized with 0.1 M NaOH (pH 7.6). Homogenates are then microfuged at 7,000 g for 10 min. BDNF levels in the supernatant are evaluated using sandwich ELISA.

stressed mice [3] = experiment: Open Field Test (OFT), UCMS-stressed mice, Example 7; assay type: in vivo; details: 30 mg/kg (escitalopram 15 mg/kg) i.p., 3 weeks, vs vehicle
Procedure: Animals. ICR outbred mice (Envigo RMS (Harlen), Israel) are kept in the vivarium of the Open University lab in Hadassah medical center, Jerusalem. Mice are kept on a reversed 12 h light/dark cycle and given ad libitum access to food and water. All experiments are performed during the dark phase under red light (7:00-19:00). All experiments have been approved by the committee for animal care and use according to the NIH guidelines. Drugs. Drugs are dissolved in saline and 1% DMSO to the desired concentration and administered i.p. Herbal mixture and Shan-zha (30 mg/kg) will be prepared by dissolving each component (KPC Products, Inc., CA, USA) to a final concentration of 0.47 mg/ml. […] Unpredictable chronic mild stress (UCMS). Mice are exposed to UCMS for 4 weeks at the age of 4 weeks as previously described. Open Field Test (OFT). This test reflects the conflict between the innate fear that mice have of the central area of the field versus their desire to explore new environments. When anxious, the natural tendency of mice is to prefer staying close to the walls. […] Anxiety-like behavior is expressed as the time the animal spent in the center area of the field (Walsh, R. N. and R. A. Cummins, Psychol Bull, 1976. 83(3): p. 482-504). Locomotor activity are expressed as the percentage of time that the mouse moved in the arena in a velocity above 0.1 pixel/sec.

stressed mice [4] = experiment: Forced Swim Test (FST), UCMS-stressed mice, Example 7; assay type: in vivo; details: 30 mg/kg (escitalopram 15 mg/kg) i.p., 3 weeks, vs vehicle
Procedure: (§1) Animals. ICR outbred mice (Envigo RMS (Harlen), Israel) are kept in the vivarium of the Open University lab in Hadassah medical center, Jerusalem. Mice are kept on a reversed 12 h light/dark cycle and given ad libitum access to food and water. All experiments are performed during the dark phase under red light (7:00-19:00). All experiments have been approved by the committee for animal care and use according to the NIH guidelines. Drugs. Drugs are dissolved in saline and 1% DMSO to the desired concentration and administered i.p. Herbal mixture and Shan-zha (30 mg/kg) will be prepared by dissolving each component (KPC Products, Inc., CA, USA) to a final concentration of 0.47 mg/ml. […] Unpredictable chronic mild stress (UCMS). Mice are exposed to UCMS for 4 weeks at the age of 4 weeks as previously described. Forced Swim Test (FST). This test is based upon the evaluation of immobility as a measure of behavioral despair and are performed as previously described. Depressive-like behavior are expressed as the time the mouse was immobile defined as cessation of limb movements except minor movement necessary to keep the mouse afloat.

stressed mice [5] = experiment: Tail Suspension Test (TST), UCMS-stressed mice, Example 7; assay type: in vivo; details: 30 mg/kg (escitalopram 15 mg/kg) i.p., 3 weeks, vs vehicle
Procedure: as §1, with “Tail Suspension” for “Forced Swim”, “(TST).” for “(FST).”, “immobile.” for “immobile defined as cessation of limb movements except minor movement necessary to keep the mouse afloat.”

What does the source list for CN(C)CCC[C@@]1(c2ccc(F)cc2)OCc2cc(C#N)ccc21 [escitalopram]?
stress-induced anxiety-like behavior within treatment group, pups (21 days old pups; PND21, stressed vs naive pups): No similar stress-induced anxiety-like behavior was observed; anxiety-like behavior in the EPM, treated stressed pups vs saline-treated stressed pups (21 days old pups; PND21, prenatal stress, treatment via lactation, dams 15 mg/kg s.c. daily): saline-treated stressed pups demonstrated elevated anxiety-like behavior compared to both shan-zha- and escitalopram-treated stressed pups; also recorded: the stress-vehicle group demonstrated increased anxiety-like behavior compared to the naïve-vehicle, stress-escitalopram and stress-shan-zha groups; time spent in the open arms of the EPM (anxiety-like behavior) (stressed mice [1]): spent more time in the open arms of the maze in comparison with vehicle-treated mice; also recorded: reduced anxiety-like behavior in the EPM compared to vehicle; time spent immobile in the TST (depressive-like behavior) (stressed mice [2]): spent less time immobile in comparison with vehicle-treated mice; also recorded: reduced depressive-like behavior in the Tail suspension test (TST) compared to vehicle; hippocampal BDNF levels (BDNF): Significant elevations in hippocampal BDNF levels; anxiety-like behavior in the OFT (stressed mice [3]): exhibited reduced anxiety-like behavior in the OFT compared to vehicle-treated stressed mice; depressive-like behavior in the FST (stressed mice [4]): exhibited reduced depressive-like behavior in the FST compared to vehicle-treated stressed mice; depressive-like behavior in the TST (stressed mice [5]): exhibited reduced depressive-like behavior in the TST compared to vehicle-treated stressed mice
